According to patent publication EP0392976A1, “Monoclonal antibodies to tetracyclic compounds, processes for their production, and applications” (CIBA-GEIGY AG, priority 1989, dated 1990):
pIC50: −log10 of the molar value. Structures can show the parent of a compound that is named as a salt. Where two headings read alike, the source gives them in different places.

Legend:
Assay in all cases: inhibition enzyme immunoassay: inhibition of MAb binding to surface bound R-(-)-oxaprotiline-mucin conjugate
Set-up in all cases: species or system mouse
MAb 1226S31.3 = system: MAb 1226S31.3
Experimental: (§1) The affinities of the monoclonal antibodies of the invention to R-(-)-oxaprotiline can for example be determined in an inhibition enzyme immunoassay according to Friguet et al. (J. Immunol. Methods 77, 305, 1985) wherein the monoclonal antibody to be tested is preincubated with R-(-)-oxaprotiline and, in a second step, exposed to a solid phase coated with an adsorbable conjugate of R-(-)-oxaprotiline, e.g. a protein conjugate. The fraction of the monoclonal antibody not engaged in immunocomplexes binds to the solid phase and is quantified by a secondary antibody-enzyme conjugate directed against the monoclonal antibody. The affinities are expressed as IC₅₀ (inhibition concentration) values, i.e. the concentration of free antigen causing a 50 % inhibition of antibody binding to the solid phase antigen.
(§2) This can be done, for example, in an inhibition enzyme immunoassay wherein the monoclonal antibodies of the invention are preincubated with any of the soluble compounds listed above and the incubation mixture is then tested in the enzyme immunoassay described above.
(§3) The conjugate solution (0.66 mg/ml) is diluted 1000-fold in coating buffer pH 9.8 (477 mg sodium carbonate, 897 mg sodium hydrogen carbonate, 60 mg sodium azide, 300 ml distilled water) and incubated in the wells of a microtitre plate for 2 days at 4°C. The wells are washed three times with PBS containing Tween 20 (Sigma, 0.1 %). Residual adsorption sites on the plate are saturated by incubation with 100 µl of PBS/Tween 20 for 1 h. 100 µl of a solution to be tested for the presence of antibodies to R-(-)-oxaprotiline are incubated in the wells for 1 h at room temperature. After washing three times with PBS/Tween 20, an alkaline phosphatase conjugated anti-mouse IgG antiserum (Sigma) is added in a 1000-fold dilution for 1 h at 37°C. The microtitre plate is washed five times with PBS/Tween 20, and the enzyme-conjugated bound antiserum developed with an alkaline phosphatase substrate consisting of disodium p-nitrophenylphosphate (1 mg/ml; Sigma) in diethanolamine buffer pH 9.8. The substrate gives a yellow coloration which is measured with a colorimeter (Titertek Multiskan) at a wave length of 405 nm after 60 min.
The capacity of a number of therapeutic drugs some of which are used in combination with antidepressants and of biogenic amines to inhibit the binding of the monoclonal antibodies of the invention to the antigen is determined in a two-step inhibition enzyme immunoassay to establish the selectivity of the monoclonal antibodies to the tested compounds.
(§4) The assay is carried out as described in the following.
(§5) The capacity of free R-(-)-oxaprotiline and of a number of compounds which are structurally analogous to R-(-)-oxaprotiline to inhibit the binding of the monoclonal antibodies of the invention to the antigen is determined in an inhibition enzyme immunoassay essentially as described in example 3.2. The MAbs are preincubated with free R-(-)-oxaprotiline and with various structural analogues, respectively, instead of with the test compounds of example 3.2.

MAb 1225S93.2 = settings: for pIC50: read-out: IC₅₀
Experimental: as §1, §2, §3, §4, §5

MAb 1219S59.11 = settings: for pIC50: read-out: IC₅₀
Experimental: as §1, §2, §3, §4, §5

MAb 1228P63.1 = settings: for pIC50: read-out: IC₅₀
Experimental: as §1, §2, §3, §4, §5

MAb 1219S78.6 = settings: for pIC50: read-out: IC₅₀
Experimental: as §1, §2, §3, §4, §5

[1] = Mab 1226S31.3, therapeutic drugs and biogenic amines, 1 µM-150 pM, preincubated overnight, read-out: IC50
[2] = MAb 1225S93.2, derived from IC50, compound 1 = 1
[3] = MAb 1219S59.11, derived from IC50, compound 1 = 1
[4] = MAb 1228P63.1, derived from IC50, compound 1 = 1

| Compound | rel. affinity (MAb 1226S31.3) | pIC50 (MAb 1226S31.3; MAb 1226S31.3, read-out: IC₅₀) | rel. affinity (MAb 1225S93.2) | pIC50 (MAb 1225S93.2; MAb 1225S93.2) | rel. affinity (MAb 1219S59.11) | pIC50 (MAb 1219S59.11; MAb 1219S59.11) | rel. affinity (MAb 1228P63.1) | pIC50 (MAb 1228P63.1; MAb 1228P63.1) | IC50 relative to reference compound (fold) (MAb 1219S78.6) | pIC50 (MAb 1219S78.6; MAb 1219S78.6) | pIC50 (MAb 1226S31.3; [1]) | rel. affinity (MAb 1226S31.3; MAb 1226S31.3, derived from IC50, compound 1 = 1) | rel. affinity (MAb 1225S93.2; [2]) | IC50 relative to reference compound (higher = weaker binding) (MAb 1219S59.11; [3]) | rel. affinity (MAb 1228P63.1; [4]) | IC50 relative to reference compound (fold) (MAb 1219S78.6; MAb 1219S78.6, derived from IC50, compound 1 = 1) | rel. affinity (MAb 1219S59.11; [3]) |
| --- | --- | --- | --- | --- | --- | --- | --- | --- | --- | --- | --- | --- | --- | --- | --- | --- | --- |
| CNCC(O)CC12CCC(c3ccccc31)c1ccccc12 (racemic) [compound 3, 1-(2-hydroxy-3-methyl-amino-propyl)-dibenzo-[b,e]bicyclo[2.2.2]-octadiene-hydro-chloride] | 0.5 | 8.51 | 1.3 | 9.32 | 2.6 | 9.12 | 2.3 | 8.77 | 1.7 | 9.29 |  |  |  |  |  |  |  |
| CNCC(O)c1ccc(O)c(O)c1 (centres unmarked) [Epinephrin, 4-[1-hydroxy-2-(methyl-amino)-ethyl]-1,2-benzene-diol] |  |  |  |  |  |  |  |  |  |  | < 6.00 |  |  |  |  |  |  |
| NCCc1c[nH]cn1 [Histamine, 1H-imidazole-4-ethane-amine] |  |  |  |  |  |  |  |  |  |  | < 6.00 |  |  |  |  |  |  |
| NCC(O)c1ccc(O)c(O)c1 [L-Norepinephrin, 4-[2-amino-1-hydroxy-ethyl]-1,2-benzenediol] |  |  |  |  |  |  |  |  |  |  | < 6.00 |  |  |  |  |  |  |
| CNC[C@H](O)CC12CCC(c3ccccc31)c1ccccc12 [compound 1] |  | 8.17 |  | 9.43 |  | 9.54 |  | 9.12 |  | 9.52 | 8.17 | 1 | 1 | 1 | 1 | 1 |  |
| CNC[C@@H](O)CC12CCC(c3ccccc31)c1ccccc12 [compound 2, S-(+)-1-(2-hydroxy-3-methylamino-propyl)-dibenzo[b,e]bicyclo-[2.2.2]octadiene-hydrochloride] | ∼0.6 | ~8.40 | 2.3 | 9.07 | 462.0 | 6.87 | 6.5 | 8.31 | 126.2 | 7.41 |  |  |  |  |  |  |  |
| CNC[C@@H](CC12CCC(c3ccccc31)c1ccccc12)O[C@@H]1O[C@H](C(=O)O)[C@@H](O)[C@H](O)[C@H]1O [compound 4, R-(-)-1-(2-glucuronyl-3-methylamino-propyl)-dibenzo[b,e]bicyclo-[2.2.2]octadiene] | 4.1 | 7.56 | 245.9 | 7.04 | 244.8 | 7.15 | 68.0 | 7.29 | 229.5 | 7.15 |  |  |  |  |  |  |  |
| CNC[C@H](CC12CCC(c3ccccc31)c1ccccc12)O[C@@H]1O[C@H](C(=O)O)[C@@H](O)[C@H](O)[C@H]1O [compound 5, S-(+)-1-(2-glucuronyl-3-methylamino-propyl)-dibenzo[b,e]bicyclo-[2.2.2]octadiene] | 52.7 | 6.45 | 429.7 | 6.80 | >3448 | < 6.00 | 562.7 | 6.37 | >3279 | < 6.00 |  |  |  |  |  |  |  |
| CNCCCC12CCC(c3ccccc31)c1ccccc12 [compound 6, 1-(3-methylamino-propyl)-dibenzo[b,e]-bicyclo[2.2.2]-octadiene-hydro-chloride] |  |  |  |  |  |  |  |  |  |  |  |  | 1.2 |  | 1.4 |  | 8.8 |
| NCC(O)CC12CCC(c3ccccc31)c1ccccc12 (centres unmarked) [compound 7, 1-(3-amino-2-hydroxy-propyl)-dibenzo[b,e]-bicyclo[2.2.2]-octadiene-hydro-chloride] | 0.4 | 8.62 | 2.0 | 9.12 | 368.9 | 6.97 | 2.2 | 8.78 | 249.2 | 7.12 |  |  |  |  |  |  |  |
| CNCC(CC12CCC(c3ccccc31)c1ccccc12)OC(C)=O (centres unmarked) [compound 11, 1-(2-acetoxy-3-methyl-amino-propyl)-dibenzo[b,e]bicyclo-[2.2.2]octadiene-hydrochloride-semi-hydrate] | 0.5 | 8.45 | 1.9 | 9.15 | 4.5 | 8.89 | 4.5 | 8.47 | 3.3 | 9.00 |  |  |  |  |  |  |  |
| c1ccc2c(c1)C1CCC2(CC2CNCCO2)c2ccccc21 (centres unmarked) [compound 12, 2-(dibenzo[b,e]bicyclo-[2.2.2]octadienyl-1-methyl)-morpholine-hydrochloride] | 0.3 | 8.68 | 6.4 | 8.63 | 174.1 | 7.30 | 3.1 | 8.63 | ∼49.2 | ~7.82 |  |  |  |  |  |  |  |
| CN1COC(CC23CCC(c4ccccc42)c2ccccc23)C1 (centres unmarked) [compound 13, 3-methyl-5-(dibenzo-[b,e]bicyclo[2.2.2]-octadienyl-1-methyl)-oxazolidine-methane-sulfonate] | 0.7 | 8.35 | 1.6 | 9.24 | 1.9 | 9.26 | 1.6 | 8.92 | 1.6 | 9.32 |  |  |  |  |  |  |  |
| CN(C)CC(O)CC12CCC(c3ccccc31)c1ccc(Cl)cc12 (centres unmarked) [compound 15, 1-(2-hydroxy-3-dimethylamino-propyl]-10-chlorodibenzo[b,e]-bicyclo[2.2.2]-octadiene-cyclamate] | 7.5 | 7.30 | 74.3 | 7.56 | 124.1 | 7.44 | 16.7 | 7.90 | 170.5 | 7.28 |  |  |  |  |  |  |  |
